Reference: patent publication US20170037028A1 (BAYER PHARMA AKTIENGESELLSCHAFT, priority 2013, published 2017)

Molecular target: T1, GLUT1 (Homo sapiens, UniProt P11166)
T1 sequence (P11166 1-492): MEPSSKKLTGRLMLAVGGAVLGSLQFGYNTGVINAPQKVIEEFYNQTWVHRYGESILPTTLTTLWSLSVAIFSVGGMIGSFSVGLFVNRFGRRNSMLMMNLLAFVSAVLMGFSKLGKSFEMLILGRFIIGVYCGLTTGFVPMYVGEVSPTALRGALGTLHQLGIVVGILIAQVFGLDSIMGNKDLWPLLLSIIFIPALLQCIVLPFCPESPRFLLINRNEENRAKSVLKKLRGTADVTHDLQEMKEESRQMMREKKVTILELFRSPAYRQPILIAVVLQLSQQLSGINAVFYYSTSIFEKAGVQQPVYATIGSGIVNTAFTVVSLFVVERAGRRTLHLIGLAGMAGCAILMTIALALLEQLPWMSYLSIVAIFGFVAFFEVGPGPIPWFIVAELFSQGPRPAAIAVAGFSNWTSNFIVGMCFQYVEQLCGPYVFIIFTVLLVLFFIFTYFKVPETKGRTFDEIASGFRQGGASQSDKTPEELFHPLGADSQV
Assay: Indirect measurement of GLUT1 activity by quantification of intracellular ATP levels (glucose induced ATP increase)
Format: cell-based
Design: endogenous in cells; host or cells: DLD1 or CHO-K1
Details: read-out: IC50 regarding glucose induced ATP increase (GLUT1 inhibition)
Description: Indirect Measurement of GLUT1 and GLUT2 Activity by Quantification of Intracellular ATP Levels
It is well known that a combination of small-molecule inhibitors of mitochondrial electron transport chain and glucose catabolism synergistically suppress ATP production and impair cellular viability (Ulanovskaya et al., 2008, 2011; Liu, et al. 2001). We therefore used DLD1 or CHO-K1 cells in combination with an oxidative phosphorylation inhibitor to identify GLUT1 and GLUT2 inhibitors. Cell lines were maintained in DMEM medium supplemented with 10% FCS and 1% Penicillin-Streptomycin solution and 2% Glutamax. The cells were treated with trypsin and seeded into 384 plates at a density of 4000 cells/well. The cells were then cultured overnight in glucose free media containing 1% FCS to reduce intracellular ATP levels. […] The CellTiter-Glo® Luminescent Cell Viability Assay from Promega was then used to measure ATP Levels.

| IC50 [nM] | Structure (SMILES) |
| --- | --- |
| 2.8 | Cc1nn(Cc2ccc(F)cc2)c(C)c1NC(=O)c1cc(C(C)C)nc2ccc(Br)cc12 [Example 2, 6-bromo-N-[1-(4-fluorobenzyl)-3,5-dimethyl-1H-pyrazol-4-yl]-2-(propan-2-yl)quinoline-4-carboxamide] |
| 3.1 | COc1ccc(Cn2nc(C)c(NC(=O)c3cc(C(F)(F)F)nc4ccc(Br)cc34)c2C)cc1 [Example 3, 6-bromo-N-[1-(4-methoxybenzyl)-3,5-dimethyl-1H-pyrazol-4-yl]-2-(trifluoromethyl)quinoline-4-carboxamide] |
| 3.8 | COc1ccc(Cn2nc(C)c(NC(=O)c3cc(C)nc4ccc(C)cc34)c2C)cc1 [Example 4, N-[1-(4-methoxybenzyl)-3,5-dimethyl-1H-pyrazol-4-yl]-2,6-dimethylquinoline-4-carboxamide] |
| 4.7 | Cc1nn(Cc2ccccc2C#N)c(C)c1NC(=O)c1cc(C(F)(F)F)nc2ccc(Br)cc12 [Example 6, 6-bromo-N-[1-(2-cyanobenzyl)-3,5-dimethyl-1H-pyrazol-4-yl]-2-(trifluoromethyl)quinoline-4-carboxamide] |
| 4.9 | Cc1ccc2nc(C3CC3)cc(C(=O)Nc3c(C)nn(Cc4ccc(F)cc4)c3C)c2c1 [Example 7, 2-cyclopropyl-N-[1-(4-fluorobenzyl)-3,5-dimethyl-1H-pyrazol-4-yl]-6-methylquinoline-4-carboxamide] |
| 5.4 | COc1ccc(Cn2nc(C)c(NC(=O)c3cc(C(F)(F)F)nc4c(Cl)cc(Cl)cc34)c2C)cc1 [Example 8, 6,8-dichloro-N-[1-(4-methoxybenzyl)-3,5-dimethyl-1H-pyrazol-4-yl]-2-(trifluoromethyl)quinoline-4-carboxamide] |
| 6.2 | Cc1nn(Cc2ccc(F)cc2)c(C)c1NC(=O)c1cc(C(F)(F)F)nc2ccc(Br)cc12 [Example 9, 6-bromo-N-[1-(4-fluorobenzyl)-3,5-dimethyl-1H-pyrazol-4-yl]-2-(trifluoromethyl)quinoline-4-carboxamide] |
| 6.4 | Cc1nn(Cc2ccc(F)cc2)c(C)c1NC(=O)c1cc(C2CC2)nc2ccc(F)cc12 [Example 10, 2-cyclopropyl-6-fluoro-N-[1-(4-fluorobenzyl)-3,5-dimethyl-1H-pyrazol-4-yl]quinoline-4-carboxamide] |
| 6.6 | Cc1nn(Cc2ccc(C#N)cc2)c(C)c1NC(=O)c1cc(C(F)(F)F)nc2c(Cl)cc(Cl)cc12 [Example 11, 6,8-dichloro-N-[1-(4-cyanobenzyl)-3,5-dimethyl-1H-pyrazol-4-yl]-2-(trifluoromethyl)quinoline-4-carboxamide] |
| 7.7 | Cc1nn(Cc2ccc(F)cc2)c(C)c1NC(=O)c1cc(C2CC2)nc2ccc(Br)cc12 [Example 12, 6-bromo-2-cyclopropyl-N-[1-(4-fluorobenzyl)-3,5-dimethyl-1H-pyrazol-4-yl]quinoline-4-carboxamide] |
| 11.3 | Cc1nn(Cc2c(F)cccc2F)c(C)c1NC(=O)c1cc(C(F)(F)F)nc2ccc(Br)cc12 [Example 13, 6-bromo-N-[1-(2,6-difluorobenzyl)-3,5-dimethyl-1H-pyrazol-4-yl]-2-(trifluoromethyl)quinoline-4-carboxamide] |
| 11.5 | Cc1nn(Cc2ccc(F)cc2)c(C)c1NC(=O)c1cc(C(F)(F)F)nc2ccc(Cl)cc12 [Example 14, 6-chloro-N-[1-(4-fluorobenzyl)-3,5-dimethyl-1H-pyrazol-4-yl]-2-(trifluoromethyl)quinoline-4-carboxamide] |
| 12.1 | Cc1nn(Cc2ccc(F)cc2)c(C)c1NC(=O)c1cc(C2CC2)nc2c(Br)cccc12 [Example 16, 8-bromo-2-cyclopropyl-N-[1-(4-fluorobenzyl)-3,5-dimethyl-1H-pyrazol-4-yl]quinoline-4-carboxamide] |
| 12.2 | COc1cc(C(=O)Nc2c(C)nn(Cc3ccc(F)cc3F)c2C)c2ccccc2n1 [Example 17, N-[1-(2,4-difluorobenzyl)-3,5-dimethyl-1H-pyrazol-4-yl]-2-methoxyquinoline-4-carboxamide] |
| 12.4 | Cc1nn(Cc2ccc(F)cc2)c(C)c1NC(=O)c1cc(C(F)(F)F)nc2c(Br)cccc12 [Example 18, 8-bromo-N-[1-(4-fluorobenzyl)-3,5-dimethyl-1H-pyrazol-4-yl]-2-(trifluoromethyl)quinoline-4-carboxamide] |
| 12.7 | Cc1nn(Cc2ccc(F)cc2)c(C)c1NC(=O)c1cc(C2CC2)nc2ccccc12 [Example 19, 2-cyclopropyl-N-[1-(4-fluorobenzyl)-3,5-dimethyl-1H-pyrazol-4-yl]quinoline-4-carboxamide] |
| 12.7 | Cc1nn(Cc2c(F)cccc2F)c(C)c1NC(=O)c1cc(C(F)(F)F)nc2c(Cl)cc(Cl)cc12 [Example 20, 6,8-dichloro-N-[1-(2,6-difluorobenzyl)-3,5-dimethyl-1H-pyrazol-4-yl]-2-(trifluoromethyl)quinoline-4-carboxamide] |
| 14.8 | Cc1cc(Br)c2nc(C(F)(F)F)cc(C(=O)Nc3c(C)nn(Cc4ccc(F)cc4)c3C)c2c1 [Example 21, 8-bromo-N-[1-(4-fluorobenzyl)-3,5-dimethyl-1H-pyrazol-4-yl]-6-methyl-2-(trifluoromethyl)quinoline-4-carboxamide] |
| 15.4 | Cc1nn(Cc2ccc(F)cc2)c(C)c1NC(=O)c1cc(C(F)(F)F)nc2ccc(Cl)c(Cl)c12 [Example 22, 5,6-dichloro-N-[1-(4-fluorobenzyl)-3,5-dimethyl-1H-pyrazol-4-yl]-2-(trifluoromethyl)quinoline-4-carboxamide] |
| 15.4 | COc1cc(C(=O)Nc2c(C)nn(Cc3ccc(OC(F)(F)F)cc3)c2C)c2ccccc2n1 [Example 23, N-{3,5-dimethyl-1-[4-(trifluoromethoxy)benzyl]-1H-pyrazol-4-yl}-2-methoxyquinoline-4-carboxamide] |
| 15.5 | Cc1ccccc1Cn1nc(C)c(NC(=O)c2cc(C(F)(F)F)nc3ccc(Br)cc23)c1C [Example 24, 6-bromo-N-[3,5-dimethyl-1-(2-methylbenzyl)-1H-pyrazol-4-yl]-2-(trifluoromethyl)quinoline-4-carboxamide] |
| 15.7 | Cc1nn(Cc2ccc(F)cc2)c(C)c1NC(=O)c1cc(C(F)(F)F)nc2c(Cl)cc(Cl)cc12 [Example 25, 6,8-dichloro-N-[1-(4-fluorobenzyl)-3,5-dimethyl-1H-pyrazol-4-yl]-2-(trifluoromethyl)quinoline-4-carboxamide] |
| 15.7 | Cc1nn(Cc2ccc(F)cc2)c(C)c1NC(=O)c1cc(C(F)(F)F)nc2cccc(F)c12 [Example 26, 5-fluoro-N-[1-(4-fluorobenzyl)-3,5-dimethyl-1H-pyrazol-4-yl]-2-(trifluoromethyl)quinoline-4-carboxamide] |
| 16.5 | COc1cc(C(=O)Nc2c(C)nn(Cc3ccc(F)cc3)c2C)c2ccccc2n1 [Example 27, N-[1-(4-fluorobenzyl)-3,5-dimethyl-1H-pyrazol-4-yl]-2-methoxyquinoline-4-carboxamide] |
| 16.8 | Cc1cccc(Cn2nc(C)c(NC(=O)c3cc(C(F)(F)F)nc4c(Cl)cc(Cl)cc34)c2C)c1 [Example 28, 6,8-dichloro-N-[3,5-dimethyl-1-(3-methylbenzyl)-1H-pyrazol-4-yl]-2-(trifluoromethyl)quinoline-4-carboxamide] |
| 19 | Cc1nn(Cc2ccc(F)cc2)c(C)c1NC(=O)c1cc(C(F)(F)F)nc2cc(F)ccc12 [Example 29, 7-fluoro-N-[1-(4-fluorobenzyl)-3,5-dimethyl-1H-pyrazol-4-yl]-2-(trifluoromethyl)quinoline-4-carboxamide] |
| 19.5 | Cc1nn(Cc2ccc(F)cc2)c(C)c1NC(=O)c1cc(C(F)(F)F)nc2ccc(F)cc12 [Example 30, 6-fluoro-N-[1-(4-fluorobenzyl)-3,5-dimethyl-1H-pyrazol-4-yl]-2-(trifluoromethyl)quinoline-4-carboxamide] |
| 20 | Cc1ccc(Cn2nc(C)c(NC(=O)c3cc(C(F)(F)F)nc4c(Cl)cc(Cl)cc34)c2C)cc1 [Example 31, 6,8-dichloro-N-[3,5-dimethyl-1-(4-methylbenzyl)-1H-pyrazol-4-yl]-2-(trifluoromethyl)quinoline-4-carboxamide] |
| 20.5 | Cc1c(NC(=O)c2cc(C(F)(F)F)nc3ccc(Br)cc23)c(C(F)(F)F)nn1Cc1ccc(F)cc1 [Example 32, 6-bromo-N-[1-(4-fluorobenzyl)-5-methyl-3-(trifluoromethyl)-1H-pyrazol-4-yl]-2-(trifluoromethyl)quinoline-4-carboxamide] |
| 25 | Cc1nn(Cc2ccccc2)c(C)c1NC(=O)c1cc(C(F)(F)F)nc2ccc(Br)cc12 [Example 33, N-(1-benzyl-3,5-dimethyl-1H-pyrazol-4-yl)-6-bromo-2-(trifluoromethyl)quinoline-4-carboxamide] |
